Test results as given in paper PMC9794587 (Frontiers in Pharmacology, 2022).
Like-named read-outs stand apart in the source and are kept apart here. Values belong to the compound of their own block, whether it stands above or below them. Where no end group is shown, it is not given here.

Tests used:
[1] = rat, in vivo, im, t1/2
[2] = dog, in vivo, im, t1/2
[3] = mice, rats, rabbits, or dogs; ref Xu et al., 2020; cited from earlier work
From the text: Previously, we established a solid-phase synthesis process for BPC157 ([Xue et al., 2004]) and verified its biological activity in rat gastric ulcer models and various skin wound models ([Huang et al., 2015]). […] For evaluating its future clinical use as a therapeutic drug and follow-up clinical trials, the present study was undertaken to evaluate the pharmacokinetics, tissue distribution, metabolis ...

[4] = can be stored at room temperature; ref Sikiric et al., 2018; cited from earlier work
From the text: Body-protective compound (BPC) 157 is a peptide isolated from human gastric juice ([Sikiric et al., 1993]). BPC157 comprises 15 amino acids ([…]) and has a molecular weight of 1419 Da. […] BPC157 exerts a significant protective effect on various tissues and organs, such as th ...

in vivo [5] = conditions: both, Sprague-Dawley, rat, iv, t1/2
in vivo [6] = conditions: both, beagle, dog, t1/2
[7] = Pharmacokinetics of BPC157 in beagle dogs after intravenous and intramuscular administration (plasma)
[8] = Pharmacokinetics of BPC157 in SD rats after intravenous and intramuscular administration (plasma, LC-MS/MS); conditions: for bioavailability: in vivo
[9] = Radiometabolite profiling of [3H]BPC157 in rat plasma, urine, bile and feces (HPLC with radioactive detector, LC-MS/MS); type: in vivo, SD rats; conditions: for proportion of the bile sample radioactivity: single IM 100 µg/300 μCi/kg [3H]BPC157, mixed bile samples 0 to 72 h; for proportion of the total fecal radioactivity: single IM 100 µg/300 μCi/kg [3H]BPC157, feces 0 to 72 h; for proportion of the total radioactivity in urine: single IM 100 µg/300 μCi/kg [3H]BPC157, mixed urine samples 8 to 72 h
Method: Thirty intact SD rats, six JVC rats, and six BDC rats (half male and half female subjects) were injected intramuscularly with 100 µg/300 μCi/kg of [3H]BPC157. Whole blood and plasma samples of six JVC rats were collected at 0.05, 0.167, 0.5, 1, 2, 4, 8, 24, 48, and 72 h after administration (three males and three females at each time point) for the examination of radio pharmacokinetics of total plasma. Six intact SD rats were used for urinary, fecal, and biliary excretion studies. Urine and fecal samples were collected from each rat at 0–8, 8–24, 24–48, and 48–72 h. Animal carcasses were collected 72 h after administration. Bile excretion was studied in six SD rats with BDC. Bile, urine, and feces were collected 0–72 h after administration. Tissue distribution of BPC was studied in 24 intact SD rats. The rats were euthanized, and tissue samples (brain, heart, kidneys, liver, spleen, lung, stomach, intestine, muscle, grease, ovaries, womb, testicles, and thymus) were collected at 3 min, 10 min, 1 h, and 24 h after administration (three males and three females at each time point). Male SD rats were administered a single IM injection of blank solvent (excipient), and biological samples, including whole blood, plasma, urine, feces, and tissues, were collected for background control. The radioactivity of the plasma, tissue, bile, urinary, and fecal samples was analyzed using a liquid scintillation counter.
Plasma, bile, urine, and fecal samples of intact SD rats or BDC rats after a single administration of [3H]BPC157 were analyzed by HPLC combined with a low-energy radionuclide detection technique to obtain the radiometabolite profiles of [3H]BPC157. The structures of the main metabolites of [3H]BPC157 in rat plasma, bile, urine, and feces were analyzed and identified using LC-MS/MS and standard molecular weight comparison.

gastric juice = conditions: cited from earlier work
[10] = rat feces collected from 0 to 72 h after administration; conditions: SD rats, up to 72 h
[11] = rat plasma collected after a single IM injection of [3H]BPC157; conditions: SD rats, up to 24 h
[12] = rat bile collected from 0 to 72 h after administration (BDC rats); conditions: SD rats, up to 72 h
[13] = rat urine collected from 0 to 8 h and from 8 to 72 h after administration; conditions: SD rats, up to 72 h
[14] = both, beagle, dog, plasma, im, 6 μg/kg
[15] = both, beagle, dog, plasma, im, 30 μg/kg
[16] = both, beagle, dog, plasma, im, 150 μg/kg
[17] = both, beagle, dog, plasma, iv, 6 μg/kg
[18] = SD rats, single intravenous 20 μg/kg, plasma, LC-MS/MS, mean, n = 6
[19] = both, Sprague-Dawley, rat, plasma, im, 20 μg/kg
[20] = both, Sprague-Dawley, rat, plasma, im, 100 μg/kg
[21] = both, Sprague-Dawley, rat, plasma, im, 500 μg/kg
[22] = both, Sprague-Dawley, rat, plasma, iv, 20 μg/kg

Compound: CC(C)C[C@H](NC(=O)CNC(=O)[C@H](C)NC(=O)[C@H](CC(=O)O)NC(=O)[C@H](CC(=O)O)NC(=O)[C@H](C)NC(=O)[C@@H]1CCCN1C(=O)[C@H](CCCCN)NC(=O)CNC(=O)[C@@H]1CCCN1C(=O)[C@@H]1CCCN1C(=O)[C@@H]1CCCN1C(=O)[C@H](CCC(=O)O)NC(=O)CN)C(=O)N[C@H](C(=O)O)C(C)C [BPC157, Gly-Glu-Pro-Pro-Pro-Pro-Gly-Lys-Pro-Ala-Asp-Asp-Ala-Gly-Leu-Val]
half-life [1]: 18.5 min
half-life [2]: 19.6 ± 3.72 min
tolerability, serious toxic effects [3]: well tolerated and did not demonstrate any serious toxic effects
stability [4]: resistant to hydrolysis, enzyme digestion, and even gastric juice
half-life (in vivo [5]): 15.2 min
half-life (in vivo [6]; im): 20 ± 5.53 min
half-life (in vivo [6]; iv): 5.27 ± 2.25 min
dose proportionality (AUC0–t and Cmax vs dose) ([7]; beagle dogs, IM 6, 30, 150 μg/kg, linear regression): linear pharmacokinetic characteristics
elimination half-life of the prototype drug ([7]; beagle dogs, IV and IM, all doses, plasma): less than 30 min
detection of prototype drug in plasma 4 h after administration ([7]; beagle dogs, plasma, 4 h after administration): could not be detected
Cssav ([7]; beagle dogs, repeated intramuscular 30 μg/kg for seven consecutive days, Cssav = AUC0–t/τ, mean ± SD, n = 6): 0.108 ± 0.0177 ng/mL
Cssmin ([7]; beagle dogs, repeated intramuscular 30 μg/kg for seven consecutive days, Cssmin = (C-48h + C-24h + C0h)/3, mean ± SD, n = 6): 0.00285 ± 0.00698 ng/mL
time for plasma BPC157 to reach its peak ([7]; beagles, IM 6, 30, and 150 μg/kg): ≤ 9 min
AUC(0-inf) [7, 14]: 0.5 ng·h/mL
AUC(0-t) [7, 14]: 0.483 ng·h/mL
Cmax [7, 14]: 1.05 ± 0.429 ng/mL
MRT [7, 14]: 25.8 min
Tmax [7, 14]: 6.33 min
bioavailability [7, 14]: 45.3 ± 24.9%
AUC(0-inf) [7, 15]: 2.73 ng·h/mL
AUC(0-t) [7, 15]: 2.67 ng·h/mL
Cmax [7, 15]: 3.3 ± 0.508 ng/mL
MRT [7, 15]: 37 min
Tmax [7, 15]: 8.67 min
bioavailability [7, 15]: 47.6 ± 18.1%
AUC(0-inf) [7, 16]: 13.8 ng·h/mL
AUC(0-t) [7, 16]: 13.8 ng·h/mL
Cmax [7, 16]: 26.1 ± 7.82 ng/mL
MRT [7, 16]: 31.4 min
Tmax [7, 16]: 8.17 min
bioavailability [7, 16]: 50.6 ± 27%
AUC(0-inf) [7, 17]: 1.28 ng·h/mL
MRT [7, 17]: 2.49 min
clearance [7, 17]: 90.8 ± 40.1 mL/min/kg
Tmax ([7]; dog, in vivo, im): 10.5 min
Vd ([7]; dog, in vivo, iv, 6 ug/kg): 0.243 ± 0.162 L/kg
Cssav ([8]; SD rats, repeat intramuscular 100 μg/kg for seven consecutive days, Cssav = AUC0–t/τ, τ is the interval of administration): 0.290 ng/mL
Cssmin ([8]; SD rats, repeat intramuscular 100 μg/kg for seven consecutive days, Cssmin=(C-48h + C-24h + C0h)/3): 0 ng/mL
Tmax ([8]; SD rats, repeat intramuscular 100 μg/kg once a day for seven consecutive days, after last dose, plasma, LC-MS/MS, mean, n = 6): 3.00 min
Tmax ([8]; SD rats, single intramuscular 20 μg/kg, plasma, LC-MS/MS, mean, n = 6): 3 min
Tmax ([8]; SD rats, single intramuscular 100 μg/kg, plasma, LC-MS/MS, mean, n = 6): 3 min
Tmax ([8]; SD rats, single intramuscular 500 μg/kg, plasma, LC-MS/MS, mean, n = 6): 3 min
MRT [8, 18]: 0.727 min
Vss [8, 18]: 0.0364 L/kg
AUC(0-inf) [8, 19]: 1.25 ng·h/mL
AUC(0-t) [8, 19]: 1.25 ng·h/mL
Cmax [8, 19]: 12.3 ng/mL
MRT [8, 19]: 7.27 min
Tmax [8, 19]: 3 min
AUC(0-inf) [8, 20]: 4.83 ng·h/mL
AUC(0-t) [8, 20]: 4.82 ng·h/mL
Cmax [8, 20]: 48.9 ng/mL
MRT [8, 20]: 9.61 min
Tmax [8, 20]: 3 min
AUC(0-inf) [8, 21]: 32.2 ng·h/mL
AUC(0-t) [8, 21]: 32.2 ng·h/mL
Cmax [8, 21]: 141 ng/mL
MRT [8, 21]: 12.8 min
Tmax [8, 21]: 3 min
AUC(0-inf) [8, 22]: 6.67 ng·h/mL
AUC(0-t) [8, 22]: 6.65 ng·h/mL
clearance [8, 22]: 50.1 mL/min/kg
bioavailability ([8]; rat, im, 20 ug/kg): 18.8%
bioavailability ([8]; rat, im, 100 ug/kg): 14.5%
bioavailability ([8]; rat, im, 500 ug/kg): 19.4%
dose proportionality (AUC0–t and Cmax vs dose) ([8]; rats, IM 20, 100, 500 μg/kg, linear regression): linear pharmacokinetic characteristics
time for plasma BPC157 to reach its peak ([8]; rats, IM 20, 100, and 500 μg/kg): ≤ 9 min
elimination half-life of the prototype drug ([8]; rats, IV and IM, all doses, plasma): less than 30 min
detection of prototype drug in plasma 4 h after administration ([8]; rats, plasma, 4 h after administration): could not be detected

Compound: [3H]O[3H] [tritium water]
proportion of the bile sample radioactivity ([9]; female BDC rats): 91.2%
proportion of the total fecal radioactivity ([9]; female rats): 30.1%
proportion of the total radioactivity in urine ([9]; female rats): 69.5%
proportion of the bile sample radioactivity ([9]; male BDC rats): 91.0%
proportion of the total fecal radioactivity ([9]; male rats): 29.3%
proportion of the total radioactivity in urine ([9]; male rats): 75.3%

fragment found [10]: [^3H]proline (M1)
fragment found [12]: [^3H]proline (M1), major
fragment found [13]: [^3H]proline (M1), major, 0 to 8 h
Compound: GEPPPPGKPADDAGLV
not cleaved (gastric juice): resistant to hydrolysis, enzyme digestion, and even gastric juice
fragment found [11]: M1(Proline) and M2 and M3 and M4 and M5 and M6
